This is an account of results in patent US20210330693A1, “HEPARANASE INHIBITORS AND THEIR USE AS ANTI-CANCER COMPOUNDS” (Wayne State University, priority 2018, published 2021).

The test system of experiment [1] is 4T1 mammary carcinoma cells. Put plainly: 4T1 experimental metastasis assay. The experiment is classed as in vivo, BALB/c mice. The note with it: IVIS imaging day 7; glycopolymer 100 μg/mouse i.p. 20 min before and together with the cells. Here is the method: 4T1 Metastasis Assay. Luciferase-labeled 4T1 mammary carcinoma cells (1×10^5/mouse) were injected i.v. (n=6 mice/group) with vehicle alone (control, PBS), with positive control (heparin), or with GlcNS(6S)α((1,4)GlcA glycopolymer (DP=12, 100 μg/mouse) into BALB/c mice (i.p) 20 min prior to cell inoculation and also together with the cells. IVIS bioluminescent imaging was performed on day 7 after cell inoculation. For IVIS imaging, mice were injected intraperitoneally with D-luciferin substrate at 150 mg/kg and anesthetized with continuous exposure to isoflurane (EZAnesthesia, Palmer, Pa.). The experiment was repeated 3 times with similar results.
4T1 Metastasis Assay (Menhofer, et al., PLOS ONE 2014, 9, el 12542). Luciferase-labeled 4T1 breast carcinoma cells (1×10^5/mouse) were injected i.v (n=6 mice/group) with vehicle alone (control, PBS), with positive control (heparin), or with GlcNS(6S)α(1,4)GlcA glycopolymer (DP=12, 100 μg/mouse) into BALB/c mice (i.p) 20 min prior to cell inoculation and also together with the cells. IVIS bioluminescent imaging was performed on day 7 after cell inoculation. […] Light emitted from the bioluminescent cells is detected by the IVIS camera system with images quantified for tumor burden using a log-scale color range set at 5×10^4 to 1×10^7 and measurement of total photon counts per second (PPS) using Living Image software (Xenogen). […]

The target in another experiment is T1, P-selectin (Homo sapiens, UniProt P16109).
T1 construct: purchased R&D Systems
T1 sequence (P16109 42-830): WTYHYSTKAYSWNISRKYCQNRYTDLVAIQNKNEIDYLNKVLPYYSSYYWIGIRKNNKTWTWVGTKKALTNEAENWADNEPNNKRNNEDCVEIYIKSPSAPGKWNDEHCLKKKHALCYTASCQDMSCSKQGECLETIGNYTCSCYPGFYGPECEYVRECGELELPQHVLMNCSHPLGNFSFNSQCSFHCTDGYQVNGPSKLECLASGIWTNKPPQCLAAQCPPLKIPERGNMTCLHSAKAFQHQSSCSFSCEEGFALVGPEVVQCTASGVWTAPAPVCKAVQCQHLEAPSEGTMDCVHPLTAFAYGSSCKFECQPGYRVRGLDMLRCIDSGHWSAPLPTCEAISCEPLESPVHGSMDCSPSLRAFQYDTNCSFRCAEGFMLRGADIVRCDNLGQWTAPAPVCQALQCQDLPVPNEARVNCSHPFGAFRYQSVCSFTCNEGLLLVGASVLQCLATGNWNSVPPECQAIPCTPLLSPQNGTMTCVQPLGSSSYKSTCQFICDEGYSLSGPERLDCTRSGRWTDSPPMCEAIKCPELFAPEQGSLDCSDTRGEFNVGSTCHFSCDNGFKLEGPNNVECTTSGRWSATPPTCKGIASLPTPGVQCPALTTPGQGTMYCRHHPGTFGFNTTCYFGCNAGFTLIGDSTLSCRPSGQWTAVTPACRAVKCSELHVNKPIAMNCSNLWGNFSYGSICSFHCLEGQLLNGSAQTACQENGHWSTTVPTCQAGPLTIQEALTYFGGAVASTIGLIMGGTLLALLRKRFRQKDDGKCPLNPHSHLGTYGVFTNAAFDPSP
Put plainly: Solution-based competitive BLI assay, P-selectin. The note with it: HBS-EP buffer with 2 mM CaCl2, 2 mM MgCl2 and 0.5 mg/mL BSA. The experiment is classed as binding. Here is the method: (§1) Biolayer Interferometry Cross-Bioactivity Assay. BLI assays were performed on an Octet Red Instrument (fortéBIO) at 25° C. Immobilization and binding analysis were carried out at 1000 rpm using HBS-EP buffer.
(§2) Biolayer Interferometry (BLI) Assay. BLI assays were performed on an Octet Red Instrument (fortéBIO) at 25° C. Immobilization and binding analysis were carried out at 1000 rpm using HBS-EP buffer [10 mM HEPES, pH 7.4, 150 mM NaCl, 3.0 mM EDTA, and 0.005% (v/v) surfactant tween20]. A solution affinity assay, used to determine affinities of ligands by SPR analysis, was adopted to BLI (Cochran et al., Glycoconjugate J. 2009, 26, 577-587.). In this method, protein is mixed with various concentrations of ligand (glycopolymer C5A or heparin, 18 kDa). Free protein in this equilibrium mixture is tested for binding against immobilized heparin (all proteins are carrier-free and purchased from R&D Systems). Heparin-biotin (Creative PEGworks, 18 kDa, 1 biotin per HP polymer), 5 μg/mL was immobilized on to streptavidin biosensors (fortéBio) for 5 min. Binding experiments were carried out under conditions of mass transport. Binding was fitted to equation 1 (as taught in reference Chai, et al. Anal. Biochem. 2009, 395, 263-264.) using Graphpad Prism. BLI response was used in place of F and ligand (heparin/glycopolymer C5A) concentration was used in place of [metal]. […]

A further experiment addresses T2, platelet factor-4 (PF4) (Homo sapiens, UniProt P02776).
T2 construct: purchased R&D Systems
T2 sequence (P02776 32-101): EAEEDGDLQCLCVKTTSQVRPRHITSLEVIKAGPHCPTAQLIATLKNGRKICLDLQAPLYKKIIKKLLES
Put plainly: Solution-based competitive BLI assay, PF4. Type of experiment: binding. The settings on record: competition with immobilized biotin-heparin (18 kDa), 25° C., read-out: dissociation constant (apparent Kd) to PF4. Here is the method:
as §1, §2

The target in the next experiment is T3, FGF-2 (Homo sapiens, UniProt P09038).
T3 construct: purchased R&D Systems
Briefly: Solution-based competitive BLI assay, FGF-2. Type of experiment: binding. The settings on record: competition with immobilized biotin-heparin (18 kDa), 25° C., read-out: dissociation constant (apparent Kd) to FGF-2. The procedure:
as §1, §2

The target in another experiment is T4, VEGF (Homo sapiens, UniProt P15692).
T4 construct: purchased R&D Systems
T4 sequence (P15692 27-191 isoform P15692-4): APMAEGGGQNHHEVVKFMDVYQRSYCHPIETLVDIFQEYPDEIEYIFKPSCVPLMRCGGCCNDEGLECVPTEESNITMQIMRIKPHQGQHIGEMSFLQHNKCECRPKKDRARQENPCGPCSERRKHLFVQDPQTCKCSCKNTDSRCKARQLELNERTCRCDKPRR
Briefly: Solution-based competitive BLI assay, VEGF. Type of experiment: binding. The settings on record: competition with immobilized biotin-heparin (18 kDa), 25° C., read-out: dissociation constant (apparent Kd) to VEGF. Here is the method: as §1, §2

For a further experiment, the target named is T5, FGF-1 (Homo sapiens, UniProt P05230).
T5 construct: purchased R&D Systems
Briefly: Solution-based competitive BLI assay, FGF-1. The note with it: competition with immobilized biotin-heparin (18 kDa), 25° C., read-out: dissociation constant (apparent Kd) to FGF-1. The experiment is classed as binding. Here is the method:
as §1, §2

T5 sequence (P05230 whole entry, species assumed): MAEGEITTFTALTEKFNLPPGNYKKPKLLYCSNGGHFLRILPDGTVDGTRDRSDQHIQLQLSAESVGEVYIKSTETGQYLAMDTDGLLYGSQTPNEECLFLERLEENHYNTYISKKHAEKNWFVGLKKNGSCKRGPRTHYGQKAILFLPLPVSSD
T3 sequence (P09038 143-288, species assumed): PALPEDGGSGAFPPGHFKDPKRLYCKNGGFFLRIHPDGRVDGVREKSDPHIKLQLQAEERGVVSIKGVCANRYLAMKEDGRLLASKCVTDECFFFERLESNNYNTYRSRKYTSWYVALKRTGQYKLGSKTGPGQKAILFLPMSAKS

Take Roneparstat: the “antimetastatic effect, lung metastasis of 4T1 cells” value in experiment [1] is recorded as “effect was similar”.
heparin [reference compound]: the “antimetastatic effect, lung metastasis of 4T1 cells” value in experiment [1] is “reduced the size of the metastasized lung tumor by half”. Further, the Kd was determined as 125 ± 152 nM on P-selectin; 0.31 ± 0.028 nM at platelet factor-4 (PF4); 0.15 ± 0.11 nM on FGF-2; 4.91 ± 1.55 nM at VEGF; 4.6 ± 3.3 nM on FGF-1.
